From US20030064082A1, “Antipsychotic agents stimulate neurogenesis in brain” (priority 2001, published 2003)
“Also recorded” adds a separate entry of the source.

Key:
[1] = test system: subventricular zone (SVZ); assay: BrdU uptake (newly divided cells) in the subventricular zone of rats after 21 days of drug in drinking water; format: in vivo, rat; conditions: for BrdU positive (BrdU+) cells / mean cell counts in the subventricular zone versus vehicle control: rats, 21 days in drinking water, single BrdU injection at day 20
Experimental: Groups of age- and weight-matched (five rats per group) adult male Wistar rats were fed ad libitum for 21 day s with either Haloperidol, 0.4 mg/kg/day, Risperidone (Janssen Pharmaceutica Res Foundation, Piscataway, N.J.) 0.5 mg/kg/day, or Olanzapine (Ely Lilly and Co., Indianapolis, Ind.) 2 mg/kg/day. Control groups received vehicle only. All drugs were administered in drinking water. Water bottles were tightly sealed with leak-proof lids. Fluid intake was measured for each animal for every 3 days and fresh drug was replaced accordingly to maintain the daily dosage.
On the 20th day of treatment, bromodeoxyuridine (BrdU, Sigma Chemical, St. Louis, Mo.), dissolved in distilled water, was injected intraperitonally in a volume of 0.3 ml or less per rat to deliver a dosage of 50 mg/kg, for the labeling of newly divided cells. One day after the BrdU injection, rats were anesthetized under ketamine (100 mg/kg) and xylazine (0.6 mg/kg) anesthesia with saline cardiac perfusion. Brains were removed quickly, placed in a brain matrix, cut into 5-mm blocks, cryoprotected in O.C.T. (Tissue-Tek) compound and frozen in isopentane in liquid nitrogen. Samples were stored at −80° C. until immunostaining.
Coronal brain sections, 10 μm-thick, were cut in a cryotome. Every fifth section was processed for immunohistochemistry with anti-BrdU antibody (Sigma Chemical). Sections were fixed in 4% paraformaldehyde and denatured in 2 N HCl for 30 min. Following incubation with primary antibody, sections were developed with avidin-biotin reagents using a biotinylated donkey anti-mouse-IgG antibody (Vector Labs., Burlingame, Calif.) and diaminobenzidine (DAB). Separate investigators performed sectioning, immunostaining, and counting of BrdU-positive cells in a double-blinded manner. To ensure consistency, one investigator who was unaware of treatment and staining protocols was responsible for counting BrdU-positive cells for the entire study.
SVZ was identified as the cell layer ventral and lateral to the ependymal layer. […] Cells along the lateral aspect of the subependymal region including the dorsolateral angle of the ventricle on both left and right hemispheres, and ventral to the corpus callosum were counted. The few BrdU-positive cells present outside this area were not counted. Five sections from each animal were counted and the average total BrdU positive cells calculated. To validate the BrdU staining of newly divided cells, an antibody against proliferating cell nuclear antigen (PCNA), from Sigma Chemical, was also used.
In these experiments, the effects on neurogenesis of treatment of animals with the atypical neuroleptics, Risperidone and Olanzapine, was assessed. […] In the experiments shown in FIG. 1, rats were treated with a vehicle, a typical neuroleptic, or an atypical neuroleptic for 21 day s. A single injection of BrdU was given to each rat intraperitoneally at day 20. Sections from brains of each animal were prepared and frozen for subsequent analysis. For immunostaining, frozen sections from rat brain were incubated with a monoclonal mouse-anti BrdU antibody, and a biotinylated anti-mouse secondary antibody and developed with avidin-biotin reagent and DAB. Shown in FIG. 1 is the staining for: (A) a vehicle-treated control rat; (B) a Haloperidol-treated rat; (C) a Risperidone-treated rat; and (D) an Olanzapine-treated rat. The arrows show some of the BrdU+ cells. […]
For quantification, the number of BrdU positive cells was counted for each group. […]

[2] = test system: subventricular zone (SVZ); assay: Double immunofluorescent staining BrdU/NeuN and BrdU/GFAP in the subventricular zone, weekly BrdU injection; format: in vivo, rat; conditions: 21 days, BrdU injected at day 7, 14 and 20
Excerpt: A second study was undertaken in which 15 rats were divided in three treatment groups: Olanzapine-, haldol-, and vehicle-treated. In this study, BrdU injection was given once a week (starting on day 7) and one animal from each group was killed on days 14, 21, 28, 35, and 42. Tissue sections from this study were used in double immunofluorescent staining for either BrdU/NeuN or BrdU/glial fibrillary acidic protein (GFAP).
To evaluate whether the BrdU-positive cells expressed any neuronal or astrocytic markers, sections were subjected to double immunofluorescent staining, using sheep anti-BrdU serum (Biodesign) in combination with either a mouse anti-NeuN (as a neuronal marker, Chemicon, Tememcula, Calif.) or a rabbit anti-glial fibrillary acidic protein (an astrocytic marker, Dako, Carpinteria, Calif.), and the appropriate secondary antibodies that had been conjugated with cyanin dyes were used for visualization (Jackson Lab, Bar Harbor, Me.). […]
To evaluate whether the BrdU-positive cells express any cell type-specific marker, double immunofluoresence microscopy using either anti-NeuN or anti-GFAP antibody in combination with anti-BrdU antibody was performed. […] No BrdU+/GFAP+ cells were detected. Although the double-stained (BrdU+/NeuN+) cells were not quantified, there were clearly more BrdU+/NeuN+ in rats treated with the atypical neuroleptics than that in the untreated control rats.

[3] = test system: hippocampal dentate gyrus; assay: BrdU+ cell count in the hippocampal dentate gyrus; format: in vivo, rat; conditions: 21 days, single BrdU injection at day 20
Experimental: (§1) In these experiments, the effect of the atypical neuroleptics in the hippocampus was evaluated. In the experiments shown in FIG. 5, rats were treated with vehicle, a typical neuroleptic (Haloperidol) (data not shown), or an atypical neuroleptic (Risperidone or Olanzapine) for 21 day s. A single injection of BrdU was given to each rat intraperitoneally at day 20. Frozen sections from rat brain were incubated with a monoclonal mouse-anti BrdU antibody and a biotinylated anti-mouse secondary antibody and developed with avidin-biotin reagent and DAB.

[4] = test system: hippocampal dentate gyrus; assay: Double immunofluorescent staining BrdU/NeuN in the hippocampal dentate gyrus; format: in vivo, rat; conditions: 21 days, single BrdU injection at day 20
Experimental: Tissue sections from intestinal mucosa, where many new cells are generated, were used as positive controls. […] Omission of the primary, anti-BrdU antibody provided additional negative controls.
as §1
The animal was treated with Olanzapine for 21 day s and a single injection of BrdU given intraperitoneally at day 20. Frozen sections were incubated with sheep-anti BrdU and mouse-anti NeuN antibodies. Secondary antibodies were a combination of Cy-3-conjugated anti-sheep antibody and Cy-2-conjugated anti-mouse antibody.

[5] = test system: superoxide dismutase; conditions: in vitro; cited from earlier work
[6] = test system: nerve growth factor (NGF)-receptor; conditions: in vitro; cited from earlier work
[7] = test system: nerve growth factor; conditions: in vitro; cited from earlier work
[8] = test system: fibroblast growth factor-2; conditions: in vivo; cited from earlier work
[9] = test system: cognition; assay: Cognitive performance of rats under long-term treatment; format: in vivo, rat; conditions: up to 90 days of treatment
Experimental: Atypical Neuroleptics Improve Cognition In this experiment, the effects of atypical neuroleptics and typical neuroleptics on cognition was evaluated. Rats were treated with either vehicle (water), Haloperidol, or Risperidone.

Cc1cc2c(s1)Nc1ccccc1N=C2N1CCN(C)CC1 [Olanzapine, 2-methyl-4-(4-methyl-1-piperazinyl)-10H-thieno[2,3-b] [1,5]benzodiazepine]
BrdU positive (BrdU+) cells / mean cell counts in the subventricular zone versus vehicle control [1]: significant increase; also recorded: significantly higher
BrdU+/GFAP+ cells in the SVZ [2]: No BrU+/GFAP+ cells were detected; also recorded: essentially none
BrdU+/NeuN+ cells in the SVZ [2]: numerous; also recorded: increase
average numbers of BrdU-positive cells in the hippocampal dentate gyrus versus control group [3]: higher than the control group
statistical significance of the increase in neurogenesis in the hippocampus [3]: not statistically significant
NeuN (or GFAP) expression of BrdU+ cells in the hippocampus [4]: 3 BrdU+/NeuN− cells in the subgranular layer and a BrdU+/NeuN+ cell in the apical region of the granular cell layer
expression of superoxide dismutase [5]: induces the expression
expression of nerve growth factor (NGF)-receptor [6]: induces the expression
expression of nerve growth factor [7]: stimulate expression

CN1CCN(C2=Nc3cc(Cl)ccc3Nc3ccccc32)CC1 [Clozapine, 8-chloro-11-(4-methyl-1-piperazinyl)-5H-dibenzo [b,e] [1,4] diazepine]
fibroblast growth factor-2 (FGF-2) expression [8]: increases; also recorded: modulate

Cc1nc2n(c(=O)c1CCN1CCC(c3noc4cc(F)ccc34)CC1)CCCC2 [Risperidone, 3-[2-[4-(6-fluoro-1,2-benzisoxazol-3-yl)-1-piperidinyl]ethyl]-6,7,8,9-tetrahydro-2-methyl-4H-pyrido[1,2-a]pyrimidin-4-one]
BrdU positive (BrdU+) cells / mean cell counts in the subventricular zone versus vehicle control [1]: significant increase; also recorded: significantly higher
average numbers of BrdU-positive cells in the hippocampal dentate gyrus versus control group [3]: higher than the control group
statistical significance of the increase in neurogenesis in the hippocampus [3]: not statistically significant
cognitive performance as compared to the vehicle [9]: improved performance

O=C(CCCN1CCC(O)(c2ccc(Cl)cc2)CC1)c1ccc(F)cc1 [Haloperidol]
mean cell counts in the subventricular zone versus Olanzapine and Risperidone (Tukey multiple comparison) ([1]; 21 days, n=5): significantly lower
BrdU positive (BrdU+) cells / mean cell counts in the subventricular zone versus vehicle control [1]: No differences
BrdU positive (BrdU+) cells / mean cell counts in the subventricular zone versus vehicle control ([1]; listed as Haldolperidol): not significantly different
NeuN (or GFAP) expression of BrdU+ cells in the hippocampus [4]: did not express NeuN (or GFAP)
cognitive performance as compared to the vehicle [9]: significantly impaired
